Literature values in US20050205101A1, “Combined pharmocological and surgical method and system for the treatment of eye disorders” (priority 2002, published 2005).
Counter-ions that a name gives are not always drawn.

Experiments:
emmetropic eye = conditions: typical concentration of about 4%
[1] = system: intraocular pressure (IOP); conditions: used topically, elevated IOP; van Alphen 1976
presbyopic patient = conditions: presbyopia, administration to the eye; Neufeld US 5,488,050

CC[C@@H]1C(=O)OC[C@@H]1Cc1cncn1C [Pilocarpine hydrochloride, pilocarpine hydrochloride]
adverse side effect on refraction (emmetropic eye): becomes myopic | near and distant vision (emmetropic eye): enhanced near vision but at the sacrifice of distant vision

CC(C)(C)NC[C@H](O)COc1nsnc1N1CCOCC1 [Timolol]
tonic accommodation (accommodation in humans; unfocused eyes, subjects with mean age of 23, Nyberg 1976): net increase in tonic accommodation | intraocular pressure (IOP) [1]: lower the IOP | vision of presbyopic subject (presbyopic patient): improved

CC(C)NCC(O)COc1ccc(CCOCC2CC2)cc1 (centres unmarked) [betaxolol]
intraocular pressure (IOP) [1]: lower the IOP

CC(C)(C)NC[C@H](O)COc1cccc2c1CCCC2=O [levobunolol]
intraocular pressure (IOP) [1]: lower the IOP

CC(=O)Oc1cc(C(C)C)c(OCCN(C)C)cc1C [thymoxamine]
gain in accommodation (accommodation in humans; treated subjects, Zetterstrom 1987): transient gain in accommodation
